Results as given in US20070128217A1 (priority 2003, published 2007).

Columns and labels:
[1] = system: control sera (pooled serum of ten healthy LUMC hospital workers; commercial negative donor pooled serum from the Dutch bloodbank); format: binding, human
[2] = system: antibodies in sera from SARS patients (sera 1a, 1b, 2, 6, 37, 62, London, SARS-yellow, SARS-green); format: binding, human; set-up: Binding of serum 6 to linear peptides of protein X1 of SARS-CoV Urbani / Binding of serum 37 to linear peptides of protein X1 of SARS-CoV Urbani / Binding of serum 6 to looped/cyclic peptide (PEPSCAN-ELISA) / Binding of serum 37 to looped/cyclic peptide (PEPSCAN-ELISA) / Binding of serum 37 to looped/cyclic peptides of protein X1 of SARS-CoV Urbani / Binding of serum 6 to linear peptides of protein X2 / Binding of serum 37 to linear peptides of protein X2 / Binding of serum 37 to looped/cyclic peptides of protein X2 of SARS-CoV Urbani / Binding of serum 6 to linear peptides of protein M of SARS-CoV Urbani / Binding of serum 37 to linear peptides of protein M of SARS-CoV Urbani / Binding of serum 6 to looped/cyclic peptides of protein M of SARS-CoV Urbani / Binding of serum 37 to looped/cyclic peptides of protein M of SARS-CoV Urbani / Binding of serum 6 to linear peptides of protein X3 of SARS-CoV Urbani / Binding of serum 37 to linear peptides of protein X3 of SARS-CoV Urbani / Binding of serum 37 to looped/cyclic peptides of protein X3 of SARS-CoV Urbani / Binding of serum 6 to linear peptides of protein X4 of SARS-CoV Urbani / Binding of serum 37 to linear peptides of protein X4 of SARS-CoV Urbani / Binding of serum 37 to looped/cyclic peptides of protein X4 of SARS-CoV Urbani / Binding of serum 6 to linear peptides of protein X5 of SARS-CoV Urbani / Binding of serum 37 to linear peptides of protein X5 of SARS-CoV Urbani / Binding of serum 37 to looped/cyclic peptides of protein X5 of SARS-CoV Urbani / Binding of serum 6 to linear peptides of protein N of SARS-CoV Urbani / Binding of serum 37 to linear peptides of protein N of SARS-CoV Urbani / Binding of serum 6 to linear peptide (PEPSCAN-ELISA) / Binding of serum 1a to looped/cyclic peptides of protein N of SARS-CoV Urbani / Binding of serum 1b to looped/cyclic peptides of protein N of SARS-CoV Urbani / Binding of serum 2 to looped/cyclic peptides of protein N of SARS-CoV Urbani / Binding of serum 6 to looped/cyclic peptides of protein N of SARS-CoV Urbani / Binding of serum 37 to looped/cyclic peptides of protein N of SARS-CoV Urbani / Binding of serum 62 to looped/cyclic peptides of protein N of SARS-CoV Urbani / Binding of serum London to looped/cyclic peptides of protein N of SARS-CoV Urbani / Binding of serum SARS-green to looped/cyclic peptides of protein N of SARS-CoV Urbani: unit not given here
[3] = system: rabbit serum obtained by immunizing a rabbit with the SARS-CoV strain Frankfurt 1; format: binding; set-up: Binding of a rabbit serum to linear peptides / Binding of a rabbit serum to looped peptides / Rabbit serum linear peptides / Rabbit serum looped peptides / Binding of a rabbit serum to linear peptides of protein N of SARS-CoV Urbani (Rabbit serum linear peptides) / Binding of a rabbit serum to looped/cyclic peptides of protein N of SARS-CoV Urbani (Rabbit serum looped peptides): unit not given here

## AFVVFLLVTLAILTA
[1]
  Binding of Control Serum Blood-Bank to Looped peptides: 0.8
  Binding of Control serum Blood-bank to linear peptides: 0.5
  Binding of Control serum LUMC to linear peptides: 0.4
  Binding of Control serum LUMC to looped peptides: 0.5
[2]
  Binding of serum 1a to linear peptides of protein E of SARS-CoV Urbani: 0.8
  Binding of serum 1a to looped/cyclic peptides of protein E of SARS-CoV Urbani: 0.5
  Binding of serum 1b to linear peptides of protein E of SARS-CoV Urbani: 0.6
  Binding of serum 1b to looped/cyclic peptides of protein E of SARS-CoV Urbani: 0.4
  Binding of serum 2 to linear peptides of protein E of SARS-CoV Urbani: 0.4
  Binding of serum 2 to looped/cyclic peptides of protein E of SARS-CoV Urbani: 0.4
  Binding of serum 6 to linear peptides of protein E of SARS-CoV Urbani: 0.6
  Binding of serum 6 to looped/cyclic peptides of protein E of SARS-CoV Urbani: 0.5
  Binding of serum 37 to linear peptides of protein E of SARS-CoV Urbani: 0.7
  Binding of serum 37 to looped/cyclic peptides of protein E of SARS-CoV Urbani: 0.5
  Binding of serum 62 to linear peptides of protein E of SARS-CoV Urbani: 0.7
  Binding of serum 62 to looped/cyclic peptides of protein E of SARS-CoV Urbani: 0.6
  Binding of serum London to linear peptides of protein E of SARS-CoV Urbani: 0.6
  Binding of serum London to looped/cyclic peptides of protein E of SARS-CoV Urbani: 0.4
  Binding of serum SARS-green to linear peptides of protein E of SARS-CoV Urbani: 0.4
  Binding of serum SARS-green to looped/cyclic peptides of protein E of SARS-CoV Urbani: 0.5
  Binding of serum SARS-yellow to linear peptides of protein E of SARS-CoV Urbani: 0.2
  Binding of serum SARS-yellow to looped/cyclic peptides of protein E of SARS-CoV Urbani: 0.5
[3]
  Binding of a rabbit serum to linear peptides: 0.7
  Binding of a rabbit serum to looped peptides: 0.1

## AIWNLDVIISSIVRQ
[1]
  Binding of Control Serum Blood-Bank to Looped peptides of the protein X3 of SARS-CoV Urbani: 0.8
  Binding of Control serum Blood-bank to linear peptides of the protein X3 of SARS-CoV Urbani: 0.7
  Binding of Control serum LUMC to linear peptides of the protein X3 of SARS-CoV Urbani: 0.7
  Binding of Control serum LUMC to looped peptides of the protein X3 of SARS-CoV Urbani: 0.7
[2]
  Binding of serum 1a to linear peptides of protein X3 of SARS-CoV Urbani: 0.8
  Binding of serum 1a to looped/cyclic peptides of protein X3 of SARS-CoV Urbani: 0.5
  Binding of serum 1b to linear peptides of protein X3 of SARS-CoV Urbani: 0.4
  Binding of serum 1b to looped/cyclic peptides of protein X3 of SARS-CoV Urbani: 0.5
  Binding of serum 2 to linear peptides of protein X3 of SARS-CoV Urbani: 0.6
  Binding of serum 2 to looped/cyclic peptides of protein X3 of SARS-CoV Urbani: 0.4
  Binding of serum 6 to linear peptides of protein X3 of SARS-CoV Urbani: 0.5
  Binding of serum 6 to looped/cyclic peptides of protein X3 of SARS-CoV Urbani: 0.4
  Binding of serum 37 to linear peptides of protein X3 of SARS-CoV Urbani: 0.6
  Binding of serum 37 to looped/cyclic peptides of protein X3 of SARS-CoV Urbani: 0.6
  Binding of serum 62 to linear peptides of protein X3 of SARS-CoV Urbani: 0.6
  Binding of serum 62 to looped/cyclic peptides of protein X3 of SARS-CoV Urbani: 0.5
  Binding of serum London to linear peptides of protein X3 of SARS-CoV Urbani: 0.6
  Binding of serum London to looped/cyclic peptides of protein X3 of SARS-CoV Urbani: 0.2
  Binding of serum SARS-green to linear peptides of protein X3 of SARS-CoV Urbani: 0.3
  Binding of serum SARS-green to looped/cyclic peptides of protein X3 of SARS-CoV Urbani: 0.4
  Binding of serum SARS-yellow to linear peptides of protein X3 of SARS-CoV Urbani: 0.3
  Binding of serum SARS-yellow to looped/cyclic peptides of protein X3 of SARS-CoV Urbani: 0.6
[3]
  Rabbit serum linear peptides: 0.3
  Rabbit serum looped peptides: 0.4

## ALRLCAYCCNIVNVS
[1]
  Binding of Control Serum Blood-Bank to Looped peptides: 1.1
  Binding of Control serum Blood-bank to linear peptides: 0.8
  Binding of Control serum LUMC to linear peptides: 0.5
  Binding of Control serum LUMC to looped peptides: 0.8
[2]
  Binding of serum 1a to linear peptides of protein E of SARS-CoV Urbani: 0.9
  Binding of serum 1a to looped/cyclic peptides of protein E of SARS-CoV Urbani: 0.8
  Binding of serum 1b to linear peptides of protein E of SARS-CoV Urbani: 0.8
  Binding of serum 1b to looped/cyclic peptides of protein E of SARS-CoV Urbani: 0.8
  Binding of serum 2 to linear peptides of protein E of SARS-CoV Urbani: 0.5
  Binding of serum 2 to looped/cyclic peptides of protein E of SARS-CoV Urbani: 0.7
  Binding of serum 6 to linear peptides of protein E of SARS-CoV Urbani: 0.7
  Binding of serum 6 to looped/cyclic peptides of protein E of SARS-CoV Urbani: 0.7
  Binding of serum 37 to linear peptides of protein E of SARS-CoV Urbani: 0.8
  Binding of serum 37 to looped/cyclic peptides of protein E of SARS-CoV Urbani: 0.7
  Binding of serum 62 to linear peptides of protein E of SARS-CoV Urbani: 0.7
  Binding of serum 62 to looped/cyclic peptides of protein E of SARS-CoV Urbani: 0.8
  Binding of serum London to linear peptides of protein E of SARS-CoV Urbani: 0.5
  Binding of serum London to looped/cyclic peptides of protein E of SARS-CoV Urbani: 0.6
  Binding of serum SARS-green to linear peptides of protein E of SARS-CoV Urbani: 0.5
  Binding of serum SARS-green to looped/cyclic peptides of protein E of SARS-CoV Urbani: 0.6
  Binding of serum SARS-yellow to linear peptides of protein E of SARS-CoV Urbani: 0.2
  Binding of serum SARS-yellow to looped/cyclic peptides of protein E of SARS-CoV Urbani: 0.7
[3]
  Binding of a rabbit serum to linear peptides: 0.7
  Binding of a rabbit serum to looped peptides: 0.4

## EETGTLIVNSVLLFL
[1]
  Binding of Control Serum Blood-Bank to Looped peptides: 0.6
  Binding of Control serum Blood-bank to linear peptides: 0.7
  Binding of Control serum LUMC to linear peptides: 0.6
  Binding of Control serum LUMC to looped peptides: 0.4
[2]
  Binding of serum 1a to linear peptides of protein E of SARS-CoV Urbani: 0.8
  Binding of serum 1a to looped/cyclic peptides of protein E of SARS-CoV Urbani: 0.4
  Binding of serum 1b to linear peptides of protein E of SARS-CoV Urbani: 0.7
  Binding of serum 1b to looped/cyclic peptides of protein E of SARS-CoV Urbani: 0.3
  Binding of serum 2 to linear peptides of protein E of SARS-CoV Urbani: 0.4
  Binding of serum 2 to looped/cyclic peptides of protein E of SARS-CoV Urbani: 0.3
  Binding of serum 6 to linear peptides of protein E of SARS-CoV Urbani: 0.6
  Binding of serum 6 to looped/cyclic peptides of protein E of SARS-CoV Urbani: 0.4
  Binding of serum 37 to linear peptides of protein E of SARS-CoV Urbani: 0.8
  Binding of serum 37 to looped/cyclic peptides of protein E of SARS-CoV Urbani: 0.4
  Binding of serum 62 to linear peptides of protein E of SARS-CoV Urbani: 0.7
  Binding of serum 62 to looped/cyclic peptides of protein E of SARS-CoV Urbani: 0.7
  Binding of serum London to linear peptides of protein E of SARS-CoV Urbani: 0.5
  Binding of serum London to looped/cyclic peptides of protein E of SARS-CoV Urbani: 0.4
  Binding of serum SARS-green to linear peptides of protein E of SARS-CoV Urbani: 0.5
  Binding of serum SARS-green to looped/cyclic peptides of protein E of SARS-CoV Urbani: 0.3
  Binding of serum SARS-yellow to linear peptides of protein E of SARS-CoV Urbani: 0.2
  Binding of serum SARS-yellow to looped/cyclic peptides of protein E of SARS-CoV Urbani: 0.5
[3]
  Binding of a rabbit serum to linear peptides: 0.5
  Binding of a rabbit serum to looped peptides: 0.0

## FLLVTLAILTALRLC
[1]
  Binding of Control Serum Blood-Bank to Looped peptides: 0.5
  Binding of Control serum Blood-bank to linear peptides: 0.6
  Binding of Control serum LUMC to linear peptides: 0.5
  Binding of Control serum LUMC to looped peptides: 0.1
[2]
  Binding of serum 1a to linear peptides of protein E of SARS-CoV Urbani: 0.6
  Binding of serum 1a to looped/cyclic peptides of protein E of SARS-CoV Urbani: 0.3
  Binding of serum 1b to linear peptides of protein E of SARS-CoV Urbani: 0.5
  Binding of serum 1b to looped/cyclic peptides of protein E of SARS-CoV Urbani: 0.0
  Binding of serum 2 to linear peptides of protein E of SARS-CoV Urbani: 0.6
  Binding of serum 2 to looped/cyclic peptides of protein E of SARS-CoV Urbani: 0.5
  Binding of serum 6 to linear peptides of protein E of SARS-CoV Urbani: 0.3
  Binding of serum 6 to looped/cyclic peptides of protein E of SARS-CoV Urbani: 1
  Binding of serum 37 to linear peptides of protein E of SARS-CoV Urbani: 0.3
  Binding of serum 37 to looped/cyclic peptides of protein E of SARS-CoV Urbani: 0.6
  Binding of serum 62 to linear peptides of protein E of SARS-CoV Urbani: 0.3
  Binding of serum 62 to looped/cyclic peptides of protein E of SARS-CoV Urbani: 0.6
  Binding of serum London to linear peptides of protein E of SARS-CoV Urbani: 0.6
  Binding of serum London to looped/cyclic peptides of protein E of SARS-CoV Urbani: 1.2
  Binding of serum SARS-green to linear peptides of protein E of SARS-CoV Urbani: 0.5
  Binding of serum SARS-green to looped/cyclic peptides of protein E of SARS-CoV Urbani: 0.3
  Binding of serum SARS-yellow to linear peptides of protein E of SARS-CoV Urbani: 0.2
  Binding of serum SARS-yellow to looped/cyclic peptides of protein E of SARS-CoV Urbani: 0.5
[3]
  Binding of a rabbit serum to linear peptides: 0.1
  Binding of a rabbit serum to looped peptides: 0.0
